# Activity calls are given as the source filed them.
# Key:
# [1] = target: Heat shock protein HSP 90-alpha (Homo sapiens, UniProt P07900); assay: Luminescence-based dose response biochemical high throughput screening assay for inhibitors of the Heat Shock Protein 90 (HSP90). [Related pubchem assays: 1831 (Summary AID.), 1846 (Confirmation screen.), 1789 (Primary screen.)]
# [2] = target: Dual specificity tyrosine-phosphorylation-regulated kinase 1A (Rattus norvegicus, UniProt Q63470); assay type: biochemical, Homo sapiens
# [3] = Luminescent dose response cell-based high throughput screening assay for inhibitors of the Janus kinase 2 mutant JAK2V617F. [Related pubchem assays: 1446 (Primary screen.), 1521 (Confirmation assay.), 1486 (Counter screen.)]; assay type: functional
# [4] = target: 5-hydroxytryptamine receptor 1A (Homo sapiens, UniProt P08908); assay type: functional
# Cytochrome P450 2C19 = Cytochrome P450 2C19 (Homo sapiens, UniProt P33261); assay: Cytochrome panel assay with activity outcomes. Panel member name: p450-cyp2c19 Compounds with AC50 equal or less than 10 uM are considered active; assay type: functional; conditions: read-out: AC50
# Aminopeptidase N = target: T1, Aminopeptidase N (Plasmodium falciparum FcB1/Columbia, UniProt O96935); assay: P. falciparum M1AAP inhibitors, biochemical, fluorogenic H-Leu-NHMec substrate, 1536-well (AID 1445); design: species or system Plasmodium falciparum 3D7, 3D7
# T1 sequence (O96935 whole entry): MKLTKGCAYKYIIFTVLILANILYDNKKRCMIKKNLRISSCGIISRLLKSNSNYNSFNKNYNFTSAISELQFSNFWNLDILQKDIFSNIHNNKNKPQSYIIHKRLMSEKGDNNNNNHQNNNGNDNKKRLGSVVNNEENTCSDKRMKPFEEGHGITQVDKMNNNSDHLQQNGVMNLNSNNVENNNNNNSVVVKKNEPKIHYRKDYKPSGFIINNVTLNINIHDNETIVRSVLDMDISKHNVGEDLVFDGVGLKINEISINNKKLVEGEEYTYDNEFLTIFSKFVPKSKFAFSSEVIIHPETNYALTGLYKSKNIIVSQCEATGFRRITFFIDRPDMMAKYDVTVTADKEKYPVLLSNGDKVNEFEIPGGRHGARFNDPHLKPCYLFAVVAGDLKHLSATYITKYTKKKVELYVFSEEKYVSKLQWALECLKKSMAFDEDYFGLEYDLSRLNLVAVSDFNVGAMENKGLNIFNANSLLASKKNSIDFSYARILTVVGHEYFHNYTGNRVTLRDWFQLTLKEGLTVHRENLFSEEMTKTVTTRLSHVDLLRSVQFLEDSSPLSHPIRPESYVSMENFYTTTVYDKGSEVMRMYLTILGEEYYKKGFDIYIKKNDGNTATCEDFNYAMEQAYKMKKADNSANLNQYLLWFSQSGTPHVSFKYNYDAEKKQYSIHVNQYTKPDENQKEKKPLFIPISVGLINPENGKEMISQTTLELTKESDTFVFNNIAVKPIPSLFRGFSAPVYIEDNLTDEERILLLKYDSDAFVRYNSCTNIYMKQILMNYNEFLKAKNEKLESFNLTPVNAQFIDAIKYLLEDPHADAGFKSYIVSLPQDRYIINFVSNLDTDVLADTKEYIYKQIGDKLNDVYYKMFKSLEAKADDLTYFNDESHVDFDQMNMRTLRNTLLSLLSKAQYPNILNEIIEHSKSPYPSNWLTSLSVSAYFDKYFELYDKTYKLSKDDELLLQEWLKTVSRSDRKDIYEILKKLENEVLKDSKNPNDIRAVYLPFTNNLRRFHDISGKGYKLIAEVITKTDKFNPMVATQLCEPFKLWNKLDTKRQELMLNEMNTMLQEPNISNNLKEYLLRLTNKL
# [5] = target: T2, RNA-binding protein pos-1 (Caenorhabditis elegans, UniProt G5EF15); assay: inhibitors of POS-1/mex-3 RNA binding, dose response, biochemical, fluorescence polarization (AID 1964);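 also: purified POS-1 fused to maltose binding protein made in E. coli; potency of compounds blocking POS-1 binding to fluorescent RNA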
# T2 sequence (G5EF15 whole entry): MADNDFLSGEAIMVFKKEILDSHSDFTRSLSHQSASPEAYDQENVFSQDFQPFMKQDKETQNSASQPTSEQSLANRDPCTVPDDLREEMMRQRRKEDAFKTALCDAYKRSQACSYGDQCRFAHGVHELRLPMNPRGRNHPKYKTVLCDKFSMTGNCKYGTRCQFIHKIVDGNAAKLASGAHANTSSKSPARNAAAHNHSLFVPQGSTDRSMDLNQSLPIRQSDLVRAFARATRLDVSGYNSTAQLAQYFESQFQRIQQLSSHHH
# [6] = target: T3, Zinc finger protein mex-5 (Caenorhabditis elegans, UniProt Q9XUB2); assay: MEX-5/TCR-2 RNA interaction inhibitors, dose response, biochemical, C. elegans, fluorescence polarization (AID 1960)
# T3 sequence (Q9XUB2 whole entry): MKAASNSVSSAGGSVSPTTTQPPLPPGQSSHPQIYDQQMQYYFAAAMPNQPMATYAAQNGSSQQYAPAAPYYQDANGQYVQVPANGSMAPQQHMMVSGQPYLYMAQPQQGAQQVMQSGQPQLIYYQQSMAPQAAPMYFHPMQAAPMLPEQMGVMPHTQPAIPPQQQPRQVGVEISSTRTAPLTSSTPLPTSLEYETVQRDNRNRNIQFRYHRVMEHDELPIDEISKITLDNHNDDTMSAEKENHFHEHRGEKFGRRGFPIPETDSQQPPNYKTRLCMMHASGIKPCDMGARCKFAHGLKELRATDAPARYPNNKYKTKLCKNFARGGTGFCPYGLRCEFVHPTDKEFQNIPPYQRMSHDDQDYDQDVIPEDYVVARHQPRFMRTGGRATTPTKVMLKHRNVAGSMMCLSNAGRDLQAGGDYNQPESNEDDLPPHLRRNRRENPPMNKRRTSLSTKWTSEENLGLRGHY
# Estrogen receptor = target: T4, Estrogen receptor (Homo sapiens, UniProt P03372);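 also: potency for inhibiting coactivator peptide recruitment to the receptor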
# T4 sequence (P03372 whole entry): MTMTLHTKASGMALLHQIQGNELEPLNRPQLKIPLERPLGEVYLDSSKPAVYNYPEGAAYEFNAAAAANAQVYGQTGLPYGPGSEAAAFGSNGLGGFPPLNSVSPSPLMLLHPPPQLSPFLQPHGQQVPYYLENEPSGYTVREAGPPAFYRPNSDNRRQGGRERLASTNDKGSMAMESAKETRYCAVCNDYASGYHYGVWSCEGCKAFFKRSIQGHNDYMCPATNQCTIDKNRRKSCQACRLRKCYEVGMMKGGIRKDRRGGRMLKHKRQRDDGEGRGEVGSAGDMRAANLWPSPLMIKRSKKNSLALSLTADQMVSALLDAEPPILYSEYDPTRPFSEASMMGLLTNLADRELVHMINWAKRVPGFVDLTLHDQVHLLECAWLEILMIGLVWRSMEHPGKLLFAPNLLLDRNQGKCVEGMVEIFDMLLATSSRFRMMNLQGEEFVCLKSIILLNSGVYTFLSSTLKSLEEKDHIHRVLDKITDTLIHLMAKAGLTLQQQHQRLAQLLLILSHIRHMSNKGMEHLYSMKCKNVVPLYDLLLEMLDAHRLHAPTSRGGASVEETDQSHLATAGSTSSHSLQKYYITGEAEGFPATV
# Estrogen receptor beta = Estrogen receptor beta (Homo sapiens, UniProt Q92731); assay: ERβ–SRC-3 coactivator interaction inhibitors, confirmation, orthogonal assay, biochemical, ELISA, streptavidin-HRP readout (AID 1060)
# 14-3-3 protein gamma = 14-3-3 protein gamma (Homo sapiens, UniProt P61981); assay: modulators of 14-3-3 gamma client binding – dose response (AID 711); assay type: functional
# [7] = target: T5, Polyadenylate-binding protein 1 (Homo sapiens, UniProt P11940); assay: PABP1 MLLE–PAM2 interaction inhibitors, dose response, miRNA deadenylation inhibitor project, biochemical, fluorescence polarization, Cy5-PAM2 peptide, secondary (AID 602260); assay type: functional; conditions: read-out: IC50_Mean
# [8] = target: T5, Polyadenylate-binding protein 1; assay: PABP1 MLLE–PAM2 binding inhibitor potency, dose response, biochemical, fluorescence polarization, FITC-PAM2 peptide (AID 602259); assay type: functional; conditions: read-out: IC50_Mean
# [9] = target: Bifunctional protein GlmU (Mycobacterium tuberculosis, UniProt P9WMN3); assay: Inhibitors of Mycobacterial Glucosamine-1-phosphate acetyl transferase (GlmU). Secondary screen.; design: species or system Mycobacterium tuberculosis H37Rv
# [10] = inhibitors of intracellular T. cruzi replication, confirmation, NIH3T3 host cells, beta-gal luminescence (AID 2044); assay type: functional, cell-based;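 also: intracellular parasites grown in NIH/3T3 mouse fibroblasts as host cells; luminescent beta-galactosidase reporter signal from transgenic T. cruzi replicating inside host cells; inhibitors lower the luminescence signal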
# [11] = cytotoxicity toward NIH3T3 fibroblasts, dose response, counter-screen, cell-based, ATP luminescence, mouse fibroblasts (AID 2010); assay type: functional;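 also: cells exposed to compound for about 90 hours before reading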
# Protein Tat = target: T6, Protein Tat (Human immunodeficiency virus type 1 group M subtype B (isolate HXB2)(HIV-1), UniProt P04608); assay type: functional;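 also: tat binding to TAR RNA read out by fluorescence polarization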
# T6 sequence (P04608 whole entry): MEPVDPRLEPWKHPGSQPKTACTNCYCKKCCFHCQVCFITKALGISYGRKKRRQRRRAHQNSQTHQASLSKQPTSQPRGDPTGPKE
# [12] = Vero cell cytotoxicity, dose response, cytotoxicity control for Vif-APOBEC3G degradation inhibitor project, Vero cells (AID 1117358); assay type: functional; conditions: Human immunodeficiency virus 1, Vero
# [13] = target: Peroxisome proliferator-activated receptor gamma/Nuclear receptor corepressor 2 (Homo sapiens, UniProt P37231+Q9Y618); assay: Counterscreen for NR2E3 inverse agonists: TR-FRET-based biochemical high throughput dose response assay to identify inverse agonists of the interaction between peroxisome proliferator-activated receptor gamma (PPARg) and nuclear receptor co-repressor 2 (NCOR2).; assay type: functional
# [14] = target: Photoreceptor-specific nuclear receptor (Homo sapiens, UniProt Q9Y5X4); assay: NR2E3 inverse agonists, dose response, biochemical, TR-FRET (AID 463256); assay type: functional
# [15] = target: Luciferin 4-monooxygenase (Photinus pyralis, UniProt P08659); assay: Counter Screen for Luciferase-based Assay Positives. [Related pubchem assays: 620, 618, 411 ]
# HT-1080 = assay: cytotoxicity in HT1080 fibrosarcoma cells, cell-based, fluorescence readout (AID 620); assay type: functional; conditions: Homo sapiens
# HEK293 = assay: inhibitors of LMP1-driven NF-kB reporter, dose response, cell-based, HEK293, luciferase, cherry-pick (AID 588343); assay type: functional; conditions: Homo sapiens
# [16] = P. falciparum Dd2 growth inhibitors, dose response, SYBR Green, dry powder samples, set 9 (AID 1159568); assay type: functional, cell-based
# [17] = P. falciparum Dd2 growth inhibitors, dose response, SYBR Green, cherry-picked samples (AID 1159567); assay type: functional, cell-based
# [18] = HepG2 cell cytotoxicity, dose response, cytotoxicity control, cherry-picked samples (AID 1159577); assay type: functional, cell-based
# [19] = P. falciparum 3D7-ScDHODH growth inhibitors, dose response, SYBR Green, dry powder samples (AID 1159570); assay type: functional, cell-based;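 also: parasite growth measured after 72 hours of compound exposure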
# [20] = HepG2 cell cytotoxicity, dose response, cytotoxicity control, plate reader, dry powder samples (AID 1159569); assay type: functional, cell-based;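 also: inhibitor potency with signal falling toward the positive control level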
# [21] = P. falciparum Dd2 growth inhibitors, dose response, SYBR Green, dry powder samples (AID 1159566); assay type: functional, cell-based;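 also: potency for growth inhibition with lower SYBR green DNA signal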
# [22] = P. falciparum ATP4 D1247Y mutant growth inhibitors, dose response, NITD609-resistant line, SYBR Green, dry powder (AID 1159571); assay type: functional, cell-based;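 also: parasites synchronized at ring stage by sorbitol before testing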
# T5 sequence (P11940 whole entry): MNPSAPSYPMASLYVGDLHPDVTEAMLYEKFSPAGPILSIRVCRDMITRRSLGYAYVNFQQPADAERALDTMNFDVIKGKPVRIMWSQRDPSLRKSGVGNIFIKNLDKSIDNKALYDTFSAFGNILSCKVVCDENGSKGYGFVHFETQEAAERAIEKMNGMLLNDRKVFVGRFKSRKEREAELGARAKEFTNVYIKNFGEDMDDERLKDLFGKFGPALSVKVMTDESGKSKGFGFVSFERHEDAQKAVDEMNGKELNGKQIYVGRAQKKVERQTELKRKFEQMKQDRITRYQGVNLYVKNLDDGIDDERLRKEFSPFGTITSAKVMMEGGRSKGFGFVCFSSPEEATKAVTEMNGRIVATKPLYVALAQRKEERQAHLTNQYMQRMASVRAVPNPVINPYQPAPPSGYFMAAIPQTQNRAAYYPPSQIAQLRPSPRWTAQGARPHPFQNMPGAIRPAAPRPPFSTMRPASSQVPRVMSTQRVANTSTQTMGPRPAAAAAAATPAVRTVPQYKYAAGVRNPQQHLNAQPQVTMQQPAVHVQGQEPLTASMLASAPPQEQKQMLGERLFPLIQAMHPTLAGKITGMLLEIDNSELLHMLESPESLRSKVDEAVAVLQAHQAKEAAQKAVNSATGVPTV
# 5-hydroxytryptamine receptor 1A, sequence (P08908 whole entry): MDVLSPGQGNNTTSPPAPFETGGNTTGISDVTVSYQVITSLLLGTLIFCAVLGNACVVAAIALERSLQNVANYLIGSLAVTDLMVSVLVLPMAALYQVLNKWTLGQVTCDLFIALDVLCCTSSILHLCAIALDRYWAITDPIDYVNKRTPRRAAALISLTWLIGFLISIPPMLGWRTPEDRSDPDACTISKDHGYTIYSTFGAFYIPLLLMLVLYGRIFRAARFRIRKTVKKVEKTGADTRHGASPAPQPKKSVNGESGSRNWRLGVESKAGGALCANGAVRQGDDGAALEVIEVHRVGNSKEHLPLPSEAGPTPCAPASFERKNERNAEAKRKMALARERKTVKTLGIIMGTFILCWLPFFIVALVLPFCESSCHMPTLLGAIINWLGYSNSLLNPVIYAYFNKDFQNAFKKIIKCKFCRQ
# Cytochrome P450 2C19, sequence (P33261 whole entry): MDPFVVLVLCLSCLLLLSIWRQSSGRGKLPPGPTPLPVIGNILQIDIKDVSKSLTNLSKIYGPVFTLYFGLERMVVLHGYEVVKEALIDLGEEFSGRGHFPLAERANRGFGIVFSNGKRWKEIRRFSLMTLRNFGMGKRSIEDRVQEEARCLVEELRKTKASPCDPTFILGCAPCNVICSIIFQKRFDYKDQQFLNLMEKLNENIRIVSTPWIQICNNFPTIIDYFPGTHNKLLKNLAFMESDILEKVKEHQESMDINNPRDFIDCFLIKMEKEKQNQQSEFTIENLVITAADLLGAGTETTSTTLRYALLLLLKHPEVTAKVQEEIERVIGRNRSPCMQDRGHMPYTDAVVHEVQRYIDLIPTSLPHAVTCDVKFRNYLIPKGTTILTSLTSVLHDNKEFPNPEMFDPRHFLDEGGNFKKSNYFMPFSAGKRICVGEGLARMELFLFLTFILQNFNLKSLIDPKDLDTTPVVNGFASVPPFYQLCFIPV
# Luciferin 4-monooxygenase, sequence (P08659 whole entry): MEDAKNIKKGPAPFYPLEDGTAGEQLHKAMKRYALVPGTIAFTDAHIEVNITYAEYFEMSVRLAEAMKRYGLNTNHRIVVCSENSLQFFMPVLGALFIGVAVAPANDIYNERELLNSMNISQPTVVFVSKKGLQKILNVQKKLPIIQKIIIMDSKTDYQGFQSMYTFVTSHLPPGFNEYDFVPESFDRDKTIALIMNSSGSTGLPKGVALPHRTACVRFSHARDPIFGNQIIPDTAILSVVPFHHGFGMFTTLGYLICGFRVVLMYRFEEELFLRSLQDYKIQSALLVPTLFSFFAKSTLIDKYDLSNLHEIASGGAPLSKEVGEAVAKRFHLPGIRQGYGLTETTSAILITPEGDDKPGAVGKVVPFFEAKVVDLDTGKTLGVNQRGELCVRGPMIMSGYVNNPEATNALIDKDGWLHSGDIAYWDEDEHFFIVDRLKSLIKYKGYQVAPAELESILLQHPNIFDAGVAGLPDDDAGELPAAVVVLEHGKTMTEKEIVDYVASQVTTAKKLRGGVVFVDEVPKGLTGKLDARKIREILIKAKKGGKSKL
# Bifunctional protein GlmU, sequence (P9WMN3 whole entry): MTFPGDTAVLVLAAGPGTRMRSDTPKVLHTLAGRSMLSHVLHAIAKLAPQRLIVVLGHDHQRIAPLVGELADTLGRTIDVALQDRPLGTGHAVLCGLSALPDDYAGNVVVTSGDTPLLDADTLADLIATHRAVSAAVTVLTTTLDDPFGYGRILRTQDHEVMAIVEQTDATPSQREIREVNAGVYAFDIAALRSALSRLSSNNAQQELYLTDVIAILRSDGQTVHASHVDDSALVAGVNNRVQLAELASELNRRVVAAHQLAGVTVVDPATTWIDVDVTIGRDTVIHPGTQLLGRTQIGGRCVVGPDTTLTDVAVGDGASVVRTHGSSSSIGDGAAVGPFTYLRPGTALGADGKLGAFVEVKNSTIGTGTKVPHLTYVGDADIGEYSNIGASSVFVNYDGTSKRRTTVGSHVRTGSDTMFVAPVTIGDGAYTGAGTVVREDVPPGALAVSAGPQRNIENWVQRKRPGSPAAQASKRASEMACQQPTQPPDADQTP
# Estrogen receptor beta, sequence (Q92731 whole entry): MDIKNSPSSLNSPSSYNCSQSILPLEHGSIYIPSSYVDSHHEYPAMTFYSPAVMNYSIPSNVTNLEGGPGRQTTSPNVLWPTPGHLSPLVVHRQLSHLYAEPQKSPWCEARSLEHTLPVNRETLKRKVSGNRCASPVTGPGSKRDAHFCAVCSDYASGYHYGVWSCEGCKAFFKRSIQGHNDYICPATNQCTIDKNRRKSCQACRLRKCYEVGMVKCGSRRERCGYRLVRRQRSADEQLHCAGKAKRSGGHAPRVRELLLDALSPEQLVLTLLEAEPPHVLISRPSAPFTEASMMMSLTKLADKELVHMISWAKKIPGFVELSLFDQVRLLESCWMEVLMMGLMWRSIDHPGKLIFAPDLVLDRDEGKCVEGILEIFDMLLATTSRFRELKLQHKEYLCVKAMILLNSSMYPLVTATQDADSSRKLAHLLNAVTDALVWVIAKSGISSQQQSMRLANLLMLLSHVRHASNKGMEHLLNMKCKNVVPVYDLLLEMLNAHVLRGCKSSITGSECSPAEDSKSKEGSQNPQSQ
# 14-3-3 protein gamma, sequence (P61981 whole entry): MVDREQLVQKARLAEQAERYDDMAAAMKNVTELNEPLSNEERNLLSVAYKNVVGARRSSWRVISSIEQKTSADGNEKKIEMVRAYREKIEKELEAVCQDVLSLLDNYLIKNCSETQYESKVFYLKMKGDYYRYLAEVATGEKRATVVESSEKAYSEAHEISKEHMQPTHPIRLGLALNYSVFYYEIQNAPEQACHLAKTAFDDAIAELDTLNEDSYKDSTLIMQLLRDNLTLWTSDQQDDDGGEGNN
# Photoreceptor-specific nuclear receptor, sequence (Q9Y5X4 whole entry): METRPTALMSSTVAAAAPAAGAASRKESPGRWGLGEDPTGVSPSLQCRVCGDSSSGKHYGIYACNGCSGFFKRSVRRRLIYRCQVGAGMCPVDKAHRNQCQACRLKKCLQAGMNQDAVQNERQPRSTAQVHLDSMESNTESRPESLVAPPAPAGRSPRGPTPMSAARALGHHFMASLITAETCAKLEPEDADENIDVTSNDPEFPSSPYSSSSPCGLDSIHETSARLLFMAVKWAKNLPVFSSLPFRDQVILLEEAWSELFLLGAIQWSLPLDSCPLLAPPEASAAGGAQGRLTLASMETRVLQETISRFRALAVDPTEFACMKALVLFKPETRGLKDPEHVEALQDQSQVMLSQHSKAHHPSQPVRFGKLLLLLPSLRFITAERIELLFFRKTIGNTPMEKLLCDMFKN
compound,measurement,setting,value
COc1ccccc1NC(=O)c1coc(=O)c(Br)c1,IC50,[1],0.658 µM (active)
CS(=O)(=O)c1ccc(-c2cn3cc(C(=O)O)ccc3n2)cc1,IC50,[1],2.5 µM (active)
same,AC50,[2],1.96 µM (active)
COc1ccc(-c2cc(-c3cc(C)ccc3O)[nH]n2)cc1,IC50,[3],1.83 µM (active)
CCCCN(CC)Cc1ccc(CNC(=O)Nc2ccc(OC)cc2OC)o1,EC50,[4],> 50 µM (not active)
same,AC50,Cytochrome P450 2C19,11.2 µM (inconclusive)
COc1ccc(N(CC(=O)NC2CCCC2)C(=O)Cn2nnc(-c3ccc(C)cc3)n2)cc1OC,EC50,[4],> 50 µM (not active)
Cc1cc(=O)oc2c(CN3CCC(C)CC3)c(O)c(Cl)cc12,IC50,Aminopeptidase N,32.7 µM (active)
same,EC50,[5],> 300 µM (not active)
same,EC50,[6],> 300 µM (not active)
same,IC50,Estrogen receptor,23.7 µM (active)
same,IC50,Estrogen receptor beta,5.23 µM (not active)
same,IC50,14-3-3 protein gamma,45.6 µM (not active)
same,IC50,[7],> 66 µM (inactive)
same,IC50,[8],37.7 µM (inactive)
COc1ccc(OCc2cc(C(=O)O)c(C)o2)cc1,IC50,[9],51.7 µM (active)
Cc1noc(/C=C/c2ccco2)c1S(=O)(=O)N1CCC(C(=O)N2c3ccccc3CC2C)CC1 (stereo not given),EC50,[10],1.66 µM (active)
same,EC50,[11],> 60 µM (not active)
same,IC50,Protein Tat,> 100 µM (active)
same,CC50,[12],39.7 µM (active)
CC(=O)c1ccc(-c2ccc(C(=O)Nc3nc(C)c(C(C)=O)s3)o2)cc1,IC50,[13],9.53 µM (active)
same,IC50,[14],8.01 µM (active)
COc1cccc(C(=O)Nc2nc3ccccc3[nH]2)c1,EC50,[15],0.75 µM (active)
same,EC50,HT-1080,> 50 µM (not active)
same,AC50,HEK293,3.29 µM (active)
same,CC50,[12],> 40 µM (active)
Cc1cccc(-c2ccc([C@@H]3[C@@H]4CN(C(=O)CN(C)C)C[C@H]3N4)cc2)c1,AC50,[16],4.19 µM (active)
same,AC50,[17],3.46 µM (active)
same,AC50,[18],32.1 µM (active)
C[C@@H]1CN([C@@H](C)CO)C(=O)c2cccc(NC(=O)c3nc4ccccc4s3)c2O[C@H]1CN(C)C(=O)Nc1ccc(C(F)(F)F)cc1,AC50,[19],0.274 µM (active)
same,AC50,[20],> 100 µM (inactive)
same,AC50,[17],1.06 µM (active)
same,AC50,[21],0.245 µM (active)
same,AC50,[22],0.323 µM (active)
CCCC(=O)N1CCC2(CC1)CN(S(=O)(=O)c1ccc(C)cc1)[C@@H](CO)c1[nH]c3cc(OC)ccc3c12,AC50,[19],0.137 µM (active)
same,AC50,[20],77.5 µM (active)
same,AC50,[16],0.182 µM (active)
same,AC50,[17],< 0.3 µM (active)
same,AC50,[21],0.0986 µM (active)
same,AC50,[22],0.115 µM (active)
